Patent publication US20230027295A1, “FXIA INHIBITORS AND PREPARATION METHOD THEREFOR AND PHARMACEUTICAL USE THEREOF” (Shenzhen Salubris Pharmaceuticals Co., Ltd., priority 2019, published 2023)

Columns and labels:
Rat pharmacokinetics = assay type: in vivo, SD rats; design: AUC: concentration or dose not given beside the values; conditions: for AUC / Cmax / Tmax / clearance / half-life / Vd: male, SD, plasma; for Vd: read-out: Vss
Text: Example 53: Investigation of the Pharmacokinetic Characteristics of the Compounds of the Present Invention
SD rats: male, 180-250 g, purchased from Guangdong Medical Laboratory Animal Center. Cynomolgus monkey: male, 4-6 kg, purchased from Guangzhou Chunsheng Biological Research Institute Co., Ltd. Beagle dog: male, 8-12 kg, developed in Kanglong Chemical (Ningbo) New Drug Technology Co., Ltd.
Reagents: DMSO (dimethyl sulfoxide), PEG-400 (polyethylene glycol 400), normal brine, heparin, acetonitrile, formic acid, and propranolol (internal standard) are commercially available.
Instrumentation: Thermo Fisher Scientific LC-MS (U300 UPLC, TSQ […] ULTRA triple quadrupole mass spectrometer).
The compound was weighed and dissolved in DMSO-PEG-400-physiological brine (5:60:35, v/v/v) system. After the rats/monkeys were administered intravenously or by gavage, 200 μL of venous blood was collected at 5 min (not collected when administered by gavage), 15 min, 30 min, 1 h, 2 h, 4 h, 6 h, 8 h, and 24 h in heparinized EP tubes, centrifuged at 12000 rpm for 2 min, and the plasma was frozen at −80° C. for testing. A certain amount of the test substance was precisely weighed and dissolved in DMSO to 1 mg/mL, which was used as a stock solution. An appropriate amount of compound stock solution was accurately pipetted and diluted with acetonitrile to prepare a standard series of solutions. 20 μL of each of the above standard series solutions were accurately pipetted, added with 180 μL of blank plasma, vortexed and mixed to prepare plasma samples equivalent to plasma concentrations of 1, 3, 10, 30, 100, 300, 1000, 3000 and 5000 ng/mL. Two-sample analysis was performed for each concentration to establish a standard curve. 20 μL of plasma was taken out, added with 200 μL of internal standard propranolol (5 ng/mL) in acetonitrile, vortexed and mixed. It was centrifuged at 4000 rpm for 5 min, and the supernatant was collected for LC-MS analysis. LC-MS detection conditions were as follows:
Chromatographic column: Thermo Scientific […] GOLD C-18 UPLC column, 100*2.1 mm, 1.9 μm.
Mobile phase: water (0.1% formic acid)-acetonitrile for gradient elution according to the table below.
After blood drug concentrations being detected by LC-MS, WinNonlin 6.1 software was used to calculate pharmacokinetic parameters by non-compartmental model method.

hERG current = biological target: T1, hERG current (Homo sapiens, UniProt Q12809); test: hERG current in HEK293-hERG stably transfected cells; assay type: cell-based; conditions: HEK293-hERG cells
T1 construct: host or cells: HEK293
T1 sequence (Q12809 whole entry): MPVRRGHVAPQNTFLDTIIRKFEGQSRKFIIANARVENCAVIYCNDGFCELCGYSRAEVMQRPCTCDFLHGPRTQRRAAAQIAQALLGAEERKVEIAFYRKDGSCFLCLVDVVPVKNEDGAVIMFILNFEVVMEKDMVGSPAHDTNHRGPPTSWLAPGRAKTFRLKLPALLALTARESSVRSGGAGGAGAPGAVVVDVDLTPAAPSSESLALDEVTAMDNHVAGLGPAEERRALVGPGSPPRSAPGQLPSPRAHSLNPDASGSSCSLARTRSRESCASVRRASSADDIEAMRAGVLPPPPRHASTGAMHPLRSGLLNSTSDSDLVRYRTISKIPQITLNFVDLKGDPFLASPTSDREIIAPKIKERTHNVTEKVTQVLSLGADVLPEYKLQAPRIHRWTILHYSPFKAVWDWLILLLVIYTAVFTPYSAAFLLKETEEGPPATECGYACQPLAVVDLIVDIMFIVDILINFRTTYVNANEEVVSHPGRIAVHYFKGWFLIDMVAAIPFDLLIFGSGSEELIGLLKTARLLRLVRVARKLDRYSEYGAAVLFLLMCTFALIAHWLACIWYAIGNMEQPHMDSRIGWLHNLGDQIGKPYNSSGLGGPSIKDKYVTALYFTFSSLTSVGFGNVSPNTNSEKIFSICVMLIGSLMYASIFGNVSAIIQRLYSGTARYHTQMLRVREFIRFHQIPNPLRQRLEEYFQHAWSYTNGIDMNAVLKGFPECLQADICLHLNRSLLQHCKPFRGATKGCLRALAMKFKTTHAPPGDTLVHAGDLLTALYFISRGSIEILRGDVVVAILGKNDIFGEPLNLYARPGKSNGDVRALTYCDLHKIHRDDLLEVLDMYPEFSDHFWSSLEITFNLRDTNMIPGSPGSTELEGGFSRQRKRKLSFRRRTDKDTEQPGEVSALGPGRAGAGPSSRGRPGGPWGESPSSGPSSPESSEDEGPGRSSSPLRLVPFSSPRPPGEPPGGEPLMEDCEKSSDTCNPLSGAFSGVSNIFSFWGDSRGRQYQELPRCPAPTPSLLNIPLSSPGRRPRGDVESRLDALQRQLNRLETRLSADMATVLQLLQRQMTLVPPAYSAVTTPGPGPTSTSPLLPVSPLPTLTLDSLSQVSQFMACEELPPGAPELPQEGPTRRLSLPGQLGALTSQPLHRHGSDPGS
Experimental: (§1) Example 56: Investigation on hERG of the Compound of the Present Invention
(§2) HEK293-hERG stably transfected cell line (invitrogen). DMEM medium (Gibco), HEPES (invitrogen), Blasticidin (invitrogen)
(§3) HEK293-hERG stably transfected cells were used for experiments when they were cultured to a degree of polymerization of 40%-80%. First, a blank solvent was applied to the cells to establish a baseline. […] In the presence of test compounds, hERG currents were recorded for approximately 5 minutes to reach a steady state, and then 5 sweep frequencies were captured. To ensure good performance of cultured cells and manipulations, the same batch of cells was also tested using the positive control dofetilide.
(§4) Peak current inhibition=(1−Peak tail current compound/Peak tail current vehicle)*100

hERG = biological target: T2, hERG (Homo sapiens, UniProt Q12809); test: as above; assay type: cell-based; conditions: human, HEK293 cells stably transfected with hERG; at 10 μM; read-out: hERG peak current inhibition
T2 construct: host or cells: HEK293
T2 sequence (Q12809 whole entry): as above
Experimental: as §1, §2, §3, §4

CYP2C9 = biological target: T3, CYP2C9 (Homo sapiens, UniProt P11712); test: CYP enzyme inhibition in liver microsomes: CYP2C9; assay type: in vitro ADME; conditions: 0.2 mg/mL liver microsomes
T3 construct: Liver microsomes (150-donor, Corning, Cat. 452117; Lot; 38292), NADPH; tissue Corning 452117; host or cells: liver microsomes, 150-donor pool
T3 sequence (P11712 whole entry): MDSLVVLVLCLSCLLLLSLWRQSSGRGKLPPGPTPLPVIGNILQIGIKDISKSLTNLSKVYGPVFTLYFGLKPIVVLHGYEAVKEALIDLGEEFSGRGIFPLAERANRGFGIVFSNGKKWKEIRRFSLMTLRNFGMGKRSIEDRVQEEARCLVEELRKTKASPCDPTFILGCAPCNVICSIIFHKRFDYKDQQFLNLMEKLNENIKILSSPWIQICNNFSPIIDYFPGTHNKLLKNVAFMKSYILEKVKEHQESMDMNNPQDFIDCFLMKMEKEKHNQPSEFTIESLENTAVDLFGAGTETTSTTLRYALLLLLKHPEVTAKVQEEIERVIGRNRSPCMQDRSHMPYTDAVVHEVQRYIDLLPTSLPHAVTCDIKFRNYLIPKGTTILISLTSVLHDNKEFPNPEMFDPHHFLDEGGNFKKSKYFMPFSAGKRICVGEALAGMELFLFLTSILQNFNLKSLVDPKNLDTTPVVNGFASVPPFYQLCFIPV
Experimental: Example 55: Investigation of CYP Enzyme Inhibition by the Compounds of the Present Invention Liver microsomes (150-donor, Corning, Cat. 452117; Lot. 38292), NADPH. […] After pre-incubating for 8 min, 10 mM NADPH was added to start the reaction, and the final concentration of NADPH was 1 mM. After a period of incubation, an internal standard such as methanol was added to stop the reaction. The amount of substrate metabolites generated in each reaction well was detected. […]

Human Factor XIa = Human Factor XIa (Homo sapiens, UniProt P03951); test: Inhibition of human coagulation factor XIa by absorptiometry (substrate S-2366); assay type: biochemical; conditions: 37° C., 20 min incubation, absorbance 405 nm; read-out: hFXIa IC50
Sequence of Human Factor XIa (P03951 388-625 limits assumed): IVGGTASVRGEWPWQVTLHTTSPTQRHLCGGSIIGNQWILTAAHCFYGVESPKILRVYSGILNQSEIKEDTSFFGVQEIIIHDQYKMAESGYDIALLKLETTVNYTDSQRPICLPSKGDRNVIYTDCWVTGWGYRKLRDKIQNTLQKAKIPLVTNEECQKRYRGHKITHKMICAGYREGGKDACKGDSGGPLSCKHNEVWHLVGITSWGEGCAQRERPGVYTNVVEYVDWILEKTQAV
Sequence of Human Factor XIa (P03951 19-387 partner limits assumed): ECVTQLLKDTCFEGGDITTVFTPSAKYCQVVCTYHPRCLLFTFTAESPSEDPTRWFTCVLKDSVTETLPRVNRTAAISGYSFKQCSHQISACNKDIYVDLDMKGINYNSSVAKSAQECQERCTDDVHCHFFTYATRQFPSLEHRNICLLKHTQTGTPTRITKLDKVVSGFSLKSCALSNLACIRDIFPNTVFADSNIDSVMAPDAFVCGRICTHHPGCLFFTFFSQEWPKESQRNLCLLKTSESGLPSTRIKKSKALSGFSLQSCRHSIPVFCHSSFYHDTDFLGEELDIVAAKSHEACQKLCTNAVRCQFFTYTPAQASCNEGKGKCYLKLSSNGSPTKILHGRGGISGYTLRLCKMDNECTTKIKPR
Experimental: Example 50: Detection of the Biological Activity of the Compounds of the Present Invention on the Inhibition of Human Coagulation Factor XIa by Absorptiometry
Buffer: 145 mM NaCl, 5 mM KCl, 1 mg/mL PEG 8000, 30 mM HEPES, pH 7.4
10 mM test compound dissolved in 100% DMSO was diluted with 100% DMSO to […]; 98 μL of FXIa enzyme solution (77.7 ng/mL) was added to each well of a 96-well plate, and 98 μL of buffer was added to the blank wells. 2 μL of compounds of different concentrations were added, and the blank and control wells were added with DMSO instead. They were mixed with a shaker, and incubated at 37° C. for 20 minutes.
Finally, 100 μL of 800 μM substrate was added to each well, and its absorbance was measured at 405 nm.

| Structure (SMILES) | F (Rat pharmacokinetics; ig) [%] | AUC (Rat pharmacokinetics; iv) [ng·h/mL] | Cmax (Rat pharmacokinetics; iv) [ng/mL] | Tmax (Rat pharmacokinetics; iv) [min] | clearance (Rat pharmacokinetics; iv) [mL/min/kg] | half-life (Rat pharmacokinetics; iv) [min] | Vd (Rat pharmacokinetics; iv) [L/kg] | AUC (Rat pharmacokinetics; po, ig) [ng·h/mL] | Cmax (Rat pharmacokinetics; po, ig) [ng/mL] | Tmax (Rat pharmacokinetics; po, ig) [min] | half-life (Rat pharmacokinetics; po, ig) [min] | IC50 (hERG current) [µM] | inhibition at 5 min, 10 µM (hERG) [%] | IC50 (CYP2C9) [µM] | IC50 (Human Factor XIa) [µM] |
| --- | --- | --- | --- | --- | --- | --- | --- | --- | --- | --- | --- | --- | --- | --- | --- |
| COc1nn([C@@H](Cc2ccccc2)C(=O)Nc2ccc(C(=O)O)cc2)c(=O)cc1-c1cc(Cl)ccc1C(C)=O [Example 19, (S)-4-(2-(4-(2-acetyl-5-chlorophenyl)-3-methoxy-6-oxopyridazin-1(6H)-yl)-3-phenylpropanamido)benzoic acid] | 24.6 | 1020 | 2500 | 4.98 | 16.4 | 10.9 | 0.269 | 2510 | 768 | 75 | 151 | > 10 | 1.17 | > 50 | 0.00761 |
| CCC(=O)c1ccc(Cl)cc1-c1cc(=O)n([C@@H](Cc2ccccc2)C(=O)Nc2ccc(C(=O)O)cc2)nc1OC [Example 32] | 5.4 | 922 | 2200 | 4.98 | 23.5 | 99 | 0.741 | 788 | 242 | 20 | 226 | > 10 | 2.8 | ~50 | 0.00165 |
